Results published in PubChem BioAssay (NCI).
Values joined by “and” are separate entries in the source; they are usually repeats but may differ in a detail not shown here. Equal entries are not always repeated.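 Values below derive from 48-hour exposures of cells grown in 96-well plates, with endpoints linearly interpolated between the two concentrations bracketing the appropriate inhibition level. Abbreviation: GI50, concentration required for 50% inhibition of growth. TGI is the concentration that stops growth completely.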

Legend:
Test in all cases: inhibition of tumour cell growth, NCI panel, 48 h
COLO 205 colon = test system: COLO 205 colon
HL-60(TB) leukemia = test system: HL-60(TB) leukemia
NCI-H226 lung = test system: NCI-H226 lung
NCI-H23 lung = test system: NCI-H23 lung
OVCAR-5 ovarian = test system: OVCAR-5 ovarian
SNB-75 CNS = test system: SNB-75 CNS
SR leukemia = test system: SR leukemia
SW-620 colon = test system: SW-620 colon
KM12 colon = test system: KM12 colon
U251 CNS = test system: U251 CNS

| Structure (SMILES) | TGI (COLO 205 colon) | TGI (HL-60(TB) leukemia) | TGI (NCI-H226 lung) | TGI (NCI-H23 lung) | TGI (OVCAR-5 ovarian) | TGI (SNB-75 CNS) | TGI (SR leukemia) | TGI (SW-620 colon) | GI50 (COLO 205 colon) | GI50 (HL-60(TB) leukemia) | GI50 (KM12 colon) | TGI (KM12 colon) | GI50 (NCI-H23 lung) | GI50 (OVCAR-5 ovarian) | GI50 (SR leukemia) | GI50 (SW-620 colon) | GI50 (U251 CNS) | TGI (U251 CNS) | GI50 (NCI-H226 lung) | GI50 (SNB-75 CNS) |
| --- | --- | --- | --- | --- | --- | --- | --- | --- | --- | --- | --- | --- | --- | --- | --- | --- | --- | --- | --- | --- |
| CC1(C(=O)O)CCOc2ccccc21 (stereo not given) | > 100 µM | > 100 µM | > 100 µM | > 100 µM | > 100 µM | > 100 µM | > 100 µM | > 100 µM | – | – | – | – | – | – | – | – | – | – | – | – |
| CC(C)C[C@H](NC(=O)[C@H](Cc1cccc2ccccc12)NS(=O)(=O)c1cccc2cccnc12)B(O)O | 3.79 µM | – | 0.000542 µM | 0.132 µM and 0.199 µM | 0.138 µM and 0.246 µM | – | 0.00812 µM | 0.0223 µM | 0.0288 µM | 0.000204 µM | 0.0178 µM | 0.114 µM and 0.179 µM | 0.00612 µM | 0.00827 µM | 0.000169 µM | 0.0015 µM | 0.011 µM | 1.45 µM | – | – |
| CS/C(c1ccccc1)=[N+](\[O-])Cc1ccccc1 | > 100 µM | > 100 µM | > 100 µM | > 100 µM | > 100 µM | > 100 µM | 43.3 µM | – | – | – | – | > 100 µM | – | – | – | – | – | > 100 µM | – | – |
| CCCCn1c2ccccc2c2ccc3c(c21)C(=O)C=CC3=O | > 100 µM | – | > 100 µM | > 100 µM | > 100 µM | 0.638 µM | > 100 µM | > 100 µM | – | – | – | > 100 µM | – | – | – | – | – | > 100 µM | – | – |
| CSc1ccc(SC2c3ccc(C)cc3Oc3nc(N)c(C#N)c(N)c32)cc1 (stereo not given) | – | 4.42 µM | 3.27 µM | 3.22 µM | 3.24 µM | 7.34 µM | 7.65 µM | 4.28 µM | – | 2.12 µM | 1.96 µM | 3.65 µM | 1.69 µM | 1.71 µM | 2.54 µM | 2.03 µM | 1.69 µM | 3.05 µM | 1.81 µM | 2.2 µM |
| COc1ccc(Cn2cc3c(c2-c2cc(OC)c(OC)c(OC)c2)CCc2cnoc2-3)cc1N | 0.789 µM | 0.184 µM | > 100 µM | > 100 µM | > 100 µM | – | 1.39 µM | > 100 µM | 0.251 µM | 0.0268 µM | 0.0401 µM | 1.94 µM | 0.0507 µM | 0.324 µM | 0.032 µM | 0.038 µM | 0.0523 µM | > 100 µM | 0.537 µM | – |
| COc1ccc2c(CCNC(=O)/C=C/c3ccccc3)c(C(C)=O)[nH]c2c1[N+](=O)[O-] | > 100 µM | > 100 µM | 46.7 µM | 58 µM | – | – | > 100 µM | > 100 µM | – | – | – | > 100 µM | – | – | – | – | – | > 100 µM | – | – |
| Fc1ccc2c(c1)C1=C(CO2)C(c2ccc(Cl)cc2)NC(=S)N1 (stereo not given) | 90.9 µM | > 100 µM | – | 58.5 µM | 84.3 µM | > 100 µM | 50.3 µM | 93.8 µM | 31.3 µM | 31.6 µM | 17.8 µM | 38.9 µM | 26 µM | 28.2 µM | 13 µM | 27.3 µM | 18.7 µM | 63.1 µM | – | 96.8 µM |
| CCOC(=O)C(C)(C)Oc1ccc2c(-c3ccc(Cl)cc3)c(-c3ccc(Cl)cc3)c(=O)oc2c1 | > 100 µM | > 100 µM | > 100 µM | > 100 µM | – | > 100 µM | > 100 µM | > 100 µM | – | – | – | – | – | – | – | – | – | > 100 µM | – | – |
| COc1nc2c(nc(N)n2C2OCC(O)C(O)C2O)c(=O)n1C (stereo not given) | > 100 µM | > 100 µM | > 100 µM | > 100 µM | – | > 100 µM | > 100 µM | > 100 µM | – | – | – | > 100 µM | – | – | – | – | – | > 100 µM | – | – |
| CS(=O)(=O)N(CCC#N)c1ccc(C=O)cc1 | – | > 100 µM | > 100 µM | – | > 100 µM | > 100 µM | > 100 µM | > 100 µM | – | – | – | > 100 µM | – | – | – | – | – | > 100 µM | – | – |
| O=S(=O)(NC1=NCCN1C(=S)SN1CCn2c1nsc2=S)c1ccccc1Cl | 55 µM | 8.62 µM | > 100 µM | – | 27.7 µM | 55.6 µM | 3.31 µM | 77.9 µM | 15.1 µM | 0.342 µM | 17 µM | 42.8 µM | – | 12.2 µM | 0.469 µM | 10.4 µM | 21.4 µM | 46 µM | 35.7 µM | 13.3 µM |
| CN(C)CCCCn1ccc2c1C(=O)c1c(c(O)c3ccccc3c1O)C2=O | 21 µM | 23.4 µM | 21.8 µM | 23.3 µM | 25.6 µM | 35.8 µM | 23.6 µM | – | 7.05 µM | 10.4 µM | 10.4 µM | 24.4 µM | 11.2 µM | 12.9 µM | 4.36 µM | – | 17.9 µM | 31.7 µM | 6.56 µM | 15.8 µM |
